Results as given in patent US20140051650A1, “VAGINAL COMPOSITIONS BASED ON ALKYL POLYGLUCOSIDES” (EFFIK S.A., priority 2011, published 2014).
In brackets after ≈: the same amount, converted by molar mass. Read-outs that look alike come from different tables or passages of the source.

Columns and labels:
[1] = test system: Streptococcus agalactiae; assay: Minimum Bactericidal Concentration (MBC) in liquid medium against Streptococcus agalactiae; assay type: cell-based
Method: Three Streptococcus agalactiae strains isolated from vaginal-rectal buffers during the prenatal check-ups were used for the assay. The strains were named “strain 2”, “strain 10” and “strain 11”. Isolation was carried out on a blood agar medium and identification was obtained through biochemical tests of the API 20 Strep (Bio-Mérieux) system and through the identification of the Lancefield group.
The experiments were also carried out on a Streptococcus agalactiae ATCC 12386 strain.
“Brain Heart Infusion broth” (BHIb, Becton Dickinson) medium was used for the Streptococcus agalactiae culture, “Mueller-Hinton broth” (M-Hb) medium after adding 2% “laked” horse blood and the “Mueller-Hinton agar” (M-Ha) medium with addition of defibrinated horse blood at 5% (Oxoid) were used for the antimicrobial activity assays.
The Streptococcus agalactiae strains were cultured in BHIb broth for 24 hours at 37° C. Immediately before the assay, the bacterial suspensions were diluted up to obtaining turbidity equivalent to 0.5 McFarland standard. 50 μl of a further 1:100 dilution in broth+blood at 2% were distributed in the wells of the microtitre plates. The presumed titre of the inoculum carried out through this procedure is of about 5×10^4 ufc (units forming colony)/well.
The bacterial cultures were also diluted serially according to a value 10 (up to a dilution value equivalent to 10^−7) and an aliquot of 0.1 ml of each dilution was double streaked on M-Ha +blood 5% for determining the actual titre to be used, subsequently, to determine the MBC (Minimum Bactericidal Concentration).
The assay was carried out in 96-well microtitre plates. 50 μl of M-Hb at normal concentration were deposited in the first well of each of the 5 rows. Starting from the first well of each row, […] volumes were transferred from each well to the subsequent one 10 times, thus obtaining a series of dilutions after doubling. The 12th well of each row was kept substance-free as a positive control of the bacterial growth.
Subsequently, 50 μl of bacterial inoculum of M-Hb+double concentration blood (4%) were deposited in all wells of the plate, except for the 11th of each row. Only M-Hb+double concentration blood but bacteria-free, were deposited in the 11th well, with the aim of providing negative control for each row. The described scheme was used for the assay of each of the three Streptococcus agalactiae strains.
(§1) Immediately after determining the value of the MIC for each substance, a volume equivalent to 50 μl was taken from each well and streaked on the surface of plates containing the solid medium. The plates were subsequently incubated at the conditions indicated for each microbial strain. After incubation at 37° C. for 24 hours, the number of colonies grown on the medium surface was counted thus determining the number of bacteria that survived after 24 hours of contact with the substance at the concentration present in the well. The MBC value defined as the lowest concentration of each substance capable of reducing the bacterial load by 99.9% in the previously defined assay conditions was determined through comparison between the number of bacteria that survived in each well and that of the bacterial inoculum deposited initially.

[2] = test system: Neisseria gonorrhoeae ATCC 43069; assay: MIC against Neisseria gonorrhoeae; assay type: cell-based; details: substance alone
Method: (§2) The Gardnerella vaginalis ATCC 14018 strain, the Neisseria gonorrhoeae ATCC 43069 strain and the Candida albicans ATCC 10231 strain were also used for the experiment.
(§3) The other assayed microbial strains were cultured in the liquid media and in the incubation conditions specified in table A, following the operating procedure described above.
(§4) The assay was carried out in 96-well microtitre plates. 50 μl of substance solution at the “mother” concentration alongside 50 μl of liquid medium at double concentration were deposited in the first well of each of the 8 rows while 50 μl of liquid medium at normal concentration were deposited in the remaining 11 wells. Starting from the first well of each row, 50 μl volumes were transferred from each well to the subsequent one 10 times, thus obtaining a series of 11 dilutions after doubling. The 12th well of each row was kept substance-free as a function of positive control of the bacterial growth.
(§5) Subsequently, 50 μl of diluted bacterial inoculum as specified previously were deposited in all wells of the plate, except for the 11th of each row. Only the liquid medium at single concentration but bacteria-free, was deposited in the 11th well, with the aim of providing negative control for each row. The described scheme was used for the assay with each of the assayed microbial strains. […]

[3] = test system: Neisseria gonorrhoeae ATCC 43069; assay: MBC against Neisseria gonorrhoeae; assay type: cell-based; details: substance alone
Method: as §1, with “The Gardnerella vaginalis ATCC 14018 strain, the Neisseria gonorrhoeae ATCC 43069 strain and the Candida albicans ATCC 10231 strain were also used for the experiment. [table] The other assayed microbial strains were cultured in the liquid media and in the incubation conditions specified in table A, following the operating procedure described above. Immediately” for “Immediately”

[4] = test system: Streptococcus agalactiae; assay: Minimum Inhibitory Concentration (MIC) on agarised medium against Streptococcus agalactiae; assay type: cell-based
Method: The assay was carried out on an M-Ha medium+blood at 5%. The medium was prepared at a concentration 33% higher with respect to the final one used in the test corresponding to the one indicated by the supplier. After sterilisation in autoclave, the medium was balanced at the temperature of 48° C. and added with horse blood at the concentration of 6.6% (33% higher than the final concentration of the assay). 15 ml aliquots of M-Ha medium+blood were transferred into 50 ml falcon test tubes maintained at 48° C., added with 5 ml of the dilutions of the substances to be assayed, mixed, poured into Petri dishes and left to solidify. Twenty-five bacterial inoculums, each with approximate volume of about 5 μl and containing about 10^5 ufc, were deposited on the surface of the M-Ha medium+blood of each plate. After incubation at 37° C. for 18 hours the minimum inhibitory concentration (MIC) defined as the minimum concentration of substance capable of inhibiting a bacterial growth noticeable to the naked eye at the area of deposition of the inoculums was read.
In the test with Streptococcus agalactiae the minimum inhibitory concentrations in the assay in liquid medium, regarding which only the bactericide minimum concentration values are indicated, could not be determined with sufficient reliability due to the turbidity of the solutions containing the substances. “Determination of the Minimum Inhibitory Concentration on Agarised Medium” was carried out to obtain the MIC values.

[5] = "Mother" concentration: highest concentration at which complete solubilisation could be obtained; assay type: physicochemical; details: propylene glycol 30% in water, aqueous with cosolvent or surfactant or cyclodextrin; solvent prop glycol 30% in water; read-out: "mother" conc. (highest concentration at which complete solubilisation could be obtained)
Method: The substances to be subjected to the analysis were prepared for the assay through dilution and sterilisation as described hereinafter.
The concentration of the substances referred to as “mother” represents the highest concentration at which complete solubilisation could be obtained and it is […] than the highest concentration assayed in the test.

[6] = test system: Candida albicans ATCC 10231; assay: MIC against Candida albicans; assay type: cell-based; details: substance alone
Method: as §2, §3, §4
Subsequently, 50 μl of diluted bacterial inoculum as specified previously were deposited in all wells of the plate, except for the 11th of each row. Only the liquid medium at single concentration but bacteria-free, was deposited in the 11th well, with the aim of providing negative control for each row. The described scheme was used for the assay with each of the assayed microbial strains.
After incubation at the conditions indicated regarding each micro-organism, the microtitre plates were examined to verify, in each well, the presence or absence of bacterial growth. The minimum inhibitory concentration is defined as the lowest concentration of the substance still capable of inhibiting bacterial growth i.e. preventing the liquid from becoming turbid within the well.

[7] = test system: Candida albicans ATCC 10231; assay: MBC against Candida albicans; assay type: cell-based; details: substance alone
Method: as §1, with “The Gardnerella vaginalis ATCC 14018 strain, the Neisseria gonorrhoeae ATCC 43069 strain and the Candida albicans ATCC 10231 strain were also used for the experiment. [table] The other assayed microbial strains were cultured in the liquid media and in the incubation conditions specified in table A, following the operating procedure described above. Immediately” for “Immediately”

[8] = test system: Gardnerella vaginalis ATCC 14018; assay: MIC against Gardnerella vaginalis; assay type: cell-based; details: substance alone
Method: as §2, §3, §4, §5

[9] = test system: Gardnerella vaginalis ATCC 14018; assay: MBC against Gardnerella vaginalis; assay type: cell-based; details: substance alone
Method: as §1, with “The Gardnerella vaginalis ATCC 14018 strain, the Neisseria gonorrhoeae ATCC 43069 strain and the Candida albicans ATCC 10231 strain were also used for the experiment. [table] The other assayed microbial strains were cultured in the liquid media and in the incubation conditions specified in table A, following the operating procedure described above. Immediately” for “Immediately”

[10] = ATCC 12386 in M-Hb blood 2%, substance alone
[11] = Strain 2 in M-Hb blood 2%, substance alone
[12] = Strain 10 in M-Hb blood 2%, substance alone
[13] = Strain 11 in M-Hb blood 2%, substance alone

| MIC (minimum inhibiting concentration) ([4]; strain 2, substance alone) [%] | MIC (minimum inhibiting concentration) ([4]; strain 5, substance alone) [%] | MIC (minimum inhibiting concentration) ([4]; strain 6, substance alone) [%] | MIC (minimum inhibiting concentration) ([4]; strain 7, substance alone) [%] | MIC (minimum inhibiting concentration) ([4]; strain 8, substance alone) [%] | MIC (minimum inhibiting concentration) ([4]; strain 9, substance alone) [%] | MIC (minimum inhibiting concentration) ([4]; strain 10, substance alone) [%] | MIC (minimum inhibiting concentration) ([4]; strain 11, substance alone) [%] | MIC (minimum inhibiting concentration) ([4]; strain 12, substance alone) [%] | MIC (minimum inhibiting concentration) ([4]; strain 13, substance alone) [%] | MIC (minimum inhibiting concentration) ([4]; strain 14, substance alone) [%] | MIC (minimum inhibiting concentration) ([4]; strain 15, substance alone) [%] | MIC (minimum inhibiting concentration) ([4]; strain 16, substance alone) [%] | MIC (minimum inhibiting concentration) ([4]; strain 17, substance alone) [%] | MIC (minimum inhibiting concentration) ([4]; strain 18, substance alone) [%] | MIC (minimum inhibiting concentration) ([4]; strain 19, substance alone) [%] | SMILES | MBC [1, 10] | MBC [1, 11] | MBC [1, 12] | MBC [1, 13] | further results |
| --- | --- | --- | --- | --- | --- | --- | --- | --- | --- | --- | --- | --- | --- | --- | --- | --- | --- | --- | --- | --- | --- |
|  |  |  |  |  |  |  |  |  |  |  |  |  |  |  |  | CC1(C)S[C@@H]2[C@H](NC(=O)[C@H](N)c3ccccc3)C(=O)N2[C@H]1C(=O)O [Ampicillin, reference compound] |  |  |  |  | MBC ([1]; Streptococcus agalactiae, ATCC12386, ATCC 12386 in M-Hb blood 2%, reference antibiotic, read-out: MBC): 0.5 µg/mL (≈ 1.43 µM); MBC ([1]; Streptococcus agalactiae, Strain 2 in M-Hb blood 2%, reference antibiotic, read-out: MBC): < 0.06 µg/mL; MBC ([1]; Streptococcus agalactiae, Strain 10 in M-Hb blood 2%, reference antibiotic, read-out: MBC): 1 µg/mL (≈ 2.86 µM); MBC ([1]; Streptococcus agalactiae, Strain 11 in M-Hb blood 2%, reference antibiotic, read-out: MBC): < 0.06 µg/mL; concentrations required to perform the bactericidal action, times higher in strain 10 than against strain 2 and 11 ([1]; strain 10 versus strains 2 and 11): at least 15 times; MIC [2]: ≦0.000012%; MBC [3]: ≦0.000012% |
| 0.25 | 0.25 | 0.25 | 0.25 | 0.25 | 0.25 | 0.25 | 0.25 | 0.25 | 0.25 | 0.25 | 0.25 | 0.25 | 0.25 | 0.25 | 0.25 | CCCCCCCCCCCC(=O)O [F, lauric acid] | 0.25 | ≧0.25 | ≧0.25 | 0.25 | MIC (minimum inhibiting concentration) ([4]; strain 20, substance alone): 0.25%; MIC (minimum inhibiting concentration) ([4]; strain 21, substance alone): 0.25%; MIC (minimum inhibiting concentration) ([4]; strain 22, substance alone): 0.25%; MIC (minimum inhibiting concentration) ([4]; strain 23, substance alone): 0.25%; MIC (minimum inhibiting concentration) ([4]; strain 24, substance alone): 0.25%; MIC (minimum inhibiting concentration) ([4]; strain 25, substance alone): 0.25%; MIC (minimum inhibiting concentration) ([4]; strain 12386, substance alone): 0.25%; MIC (minimum inhibiting concentration) ([4]; strain 12403, substance alone): 0.25%; MIC (minimum inhibiting concentration) ([4]; strain 27956, substance alone): 0.25%; solubility [5]: 10.1 mg/mL (≈ 50300 µM) |
| 0.11 | 0.11 | 0.11 | 0.11 | 0.22 | 0.11 | 0.22 | 0.11 | 0.11 | 0.11 | 0.11 | 0.11 | 0.11 | 0.11 | 0.22 | 0.11 | CCCCCCCCCCCC(=O)OCC(O)CO (stereo not drawn) [G, monolaurate] | 0.107 | 0.107 | 0.428 | 0.107 | MIC (minimum inhibiting concentration) ([4]; strain 20, substance alone): 0.11%; MIC (minimum inhibiting concentration) ([4]; strain 21, substance alone): 0.11%; MIC (minimum inhibiting concentration) ([4]; strain 22, substance alone): 0.11%; MIC (minimum inhibiting concentration) ([4]; strain 23, substance alone): 0.11%; MIC (minimum inhibiting concentration) ([4]; strain 24, substance alone): 0.11%; MIC (minimum inhibiting concentration) ([4]; strain 25, substance alone): 0.11%; MIC (minimum inhibiting concentration) ([4]; strain 12386, substance alone): 0.11%; MIC (minimum inhibiting concentration) ([4]; strain 12403, substance alone): 0.11%; MIC (minimum inhibiting concentration) ([4]; strain 27956, substance alone): 0.11% |
|  |  |  |  |  |  |  |  |  |  |  |  |  |  |  |  | Clc1ccc(COC(Cn2ccnc2)c2ccc(Cl)cc2Cl)cc1 (stereo not drawn) [econazole] |  |  |  |  | MIC [6]: 0.000025%; MBC [7]: 0.0008% |
|  |  |  |  |  |  |  |  |  |  |  |  |  |  |  |  | Cc1ncc([N+](=O)[O-])n1CCO [metronidazole, reference compound] |  |  |  |  | MIC [8]: 0.0004%; MBC [9]: 0.0008% |
|  |  |  |  |  |  |  |  |  |  |  |  |  |  |  |  | Clc1ccc(COC(Cn2ccnc2)c2ccc(Cl)cc2Cl)c(Cl)c1 (stereo not drawn) [miconazole] |  |  |  |  | MIC [6]: 0.000012%; MBC [7]: 0.0008% |
